These results are taken from patent US20070059242A1, “METHODS TO IDENTIFY THERAPEUTIC AGENTS” (priority 2005, published 2007).

Read-outs that look alike come from different tables or passages of the source.

One series relates to J774A.1 macrophages. The experiment in a line: Modified Boyden chamber migration (chemotaxis) assay. Type of series: cell-based, murine. Particulars: for recruitment (migration) of macrophages: 0-25 μM, 4 h. As to the method: Chemotaxis and invasion assays were performed using a modified Boyden chamber migration assay. Zwirner et al. (1998) Eur. J. Immunol. 28: 1570-77; Wilkinson (1988) Methods Enzymol. 162: 38-50. Assays were set up on MultiScreen-MIC plates (Millipore, Billerica, Mass., USA) with polyvinylpyrrolidone-free polycarbonate membranes (5 μm pore size). Cells (murine macrophage J774A.1) were washed and resuspended in serum-free DMEM containing 0.2% BSA at 1×10^6 cells/ml. Fifty microliters of cells were added to the upper wells and 150 μl of chemoattractant in DMEM/0.2% BSA were added to the lower wells of the microchamber. Incubation time was for 4 h at 37° C. in an 8% CO2 atmosphere. After swiping cells off the upper side of the membrane, cells on the lower side were visualized by either staining and phase contrast microscopy, or fluorescence. Cells that had adhered to the membrane were stained using a DiffQuik staining kit (Dade Behring, Newark, Del.). Each experiment was performed in triplicate and the numbers of migrating cells were counted in five fields at ×200. Cells harvested with PBS-EDTA for fluorescent labeling were washed two times with PBS, then resuspended in serum-free medium containing calcein AM (5 μM). Cells were incubated for 30 min (37° C., 5% CO2) with gentle intermittent mixing. Calcein-labeled cells were washed twice, and calcein fluorescence ([…]) was measured using a SPECTRAmax™ GEMINI dual-scanning microplate spectrofluorometer. Fluorescence measurements were compared to a standard curve, generated by dilution of cells in PBS/BSA in 100 μl, dispensed into 96-well plates. Fluorescence was quantified as described above.

A further series relates to THP-1 monocytes. Briefly: Monocyte morphology changes (differentiation into macrophages). In kind it is cell-based, human. Particulars: for THP-1 cell adherence (differentiation into macrophages): 12.5 or 25 μM, 7 days. As to the method: THP-1 monocytes in suspension were plated in 8-well chambered slides. […] Media containing appropriate treatment compounds was replaced after 4 days. […]

Series [1] concerns J774A.1 murine tissue macrophage line. The experiment in a line: LDH release cytotoxicity assay, J774A.1. In kind it is cell-based. As to the method: (§1) Cytotoxicity assays. WI-L2 human B-lymphocyte line, HAAE-1 human abdominal aortic endothelial line, MH-S murine alveolar macrophage line, and J774A.1 murine tissue macrophage line were obtained from the ATCC. Human aortic endothelial cells (HAEC) and human vascular smooth muscle cells (VSMS) were obtained from Cambrex Bio Science. Jurkat E6-1T-lymphocytes were kindly provided by Dr. J. Kaye (The Scripps Research Institute). Cells were cultured in ATCC-recommended media with 10% fetal calf serum. Cells were incubated in a controlled atmosphere at 37° C., with 5 or 7% CO2. For lactate dehydrogenase (LDH) release assays, adherent cells were harvested either by addition of 0.05% trypsin/EDTA or by scraping. The cells obtained were seeded onto 96-well microtiter plates (25,000 cells/well) and allowed to recover for 24-48 h. […] Cytotoxicity was then determined by measuring lactate dehydrogenase (LDH) release from cells in culture. […] 100% Cytotoxicity was defined as the maximum amount of LDH released by dead cells as shown by trypan blue exclusion, or the highest amount of LDH detected upon lysis of cells by 0.9% Triton X-100. The IC50 values were determined by comparison of the raw duplicate data for concentration versus cytotoxicity (%) to non-linear regression analysis (Hill plot) using Graphpad v3.0 software for Macintosh.
(In general: Release of lactate dehydrogenase indicates damage to the cell membrane.)

A further series relates to VCAM-1. Briefly: Endothelial adhesion molecule expression ELISA, VCAM-1. Type of series: cell-based, human. Particulars: for integrin (VCAM-1) expression: HAAE-1, not complexed with LDL. The method, then:
(§2) Endothelial cell surface adhesion molecule expression was measured by ELISA, using anti-human CD54 (ICAM-1), CD106 (VCAM-1) and CD62E (E-Selectin) antibodies (Leinco Technologies, Inc., St. Louis, Mo.). The ELISA method was modified from previously described procedures.
(§3) Cells were then incubated with antibodies to VCAM-1, E-selectin, or ICAM-1 diluted 1:400 in PBS containing 5% FCS at 37° C. for 30 min. Wells were washed two times with PBS, then incubated with horseradish peroxidase (HRP)-conjugated goat anti-mouse IgG (Southern Biotechnology Associates, Birmingham, Ala., USA) in PBS/5% FCS at 37° C. for 30 min. The wells were washed four times with PBS, then incubated with H2O2/3,3′,5,5′-tetramethyl-benzidine peroxidase substrate (Pierce Chemical, Rockford, Ill., USA) for 30 min in the dark. The reaction was stopped by adding 25 μl of 8 N H2SO4, and the plates read on a microplate reader, blanking on wells stained with only secondary antibody. Each assay was performed in triplicate and the data are reported as the mean±SEM as a percentage of the expression level of the vehicle. To study the effect of cholesterol ozonation product 5a concentration (5-50 μM) on E-selectin expression, the assay was performed in an identical fashion as described above, with each point being the mean±SEM of at least duplicate measurements.
(ELISA stands for enzyme-linked immunosorbent assay.)

In series [2] the test system is MH-S murine alveolar macrophage line. Briefly: LDH release cytotoxicity assay, MH-S. Particulars: 18 h. Type of series: cell-based. The method, then: as §1
In series [3] the test system is U-937 monocytes on endothelial cell monolayers. The experiment in a line: Monocyte-endothelial cell-cell adhesion by fluorescence spectroscopy. In kind it is cell-based. The following applies: alone or in complex with LDL.
The subject of a further series is E-selectin. The experiment in a line: Endothelial adhesion molecule expression ELISA, E-selectin. Particulars: for upregulation of E-selectin expression relative to vehicle control: HAAE-1, 4 h, 25 μM in the presence of LDL (100 μg/mL protein), or lipoprotein alone; for selectin (E-selectin) expression: HAAE-1, not complexed with LDL. In kind it is cell-based, human. The method, then:
as §2, §3

A further series concerns neuronal cell lines. The experiment in a line: Cytotoxicity towards neuronal cell lines (similar procedures). Type of series: cell-based.
The subject of a further series is ICAM-1. The experiment in a line: Endothelial adhesion molecule expression ELISA, ICAM-1. In kind it is cell-based, human. Particulars: for integrin (ICAM-1) expression: HAAE-1, not complexed with LDL. The method, then:
as §2, §3

The next series relates to J774.1 macrophages. Briefly: Lipid-loading assay (foam cell formation). Type of series: cell-based, murine. The following applies: J774.1, 72 h, LDL 100 μg/mL with or without compound 20 μM. As to the method: Lipid-loading assay (foam cell formation). J774.1 macrophages were incubated in ATCC-recommended media containing 10% fetal bovine serum under a controlled atmosphere of 5 or 7% CO2 at 37° C., in 8-well chamber slides. […] At termination, cells were washed twice with PBS (pH 7.4). The cells were then fixed with 6% (v/v) paraformaldehyde in PBS for 30 minutes, rinsed with propylene glycol for 2 minutes and lipids were stained with 5 mg/ml Oil Red 0 for 8 minutes. The cells were counterstained with Harris' hematoxylin for 45 seconds, and background staining was removed with 6% paraformaldehyde followed by washing once in PBS and once in tap water. Cover slips were mounted onto the glass slides using glycerol and the slide preparations were examined by light microscopy. The number of lipid-laden cells was scored out of a total of at least 100 cells counted in a single field in each slide, and expressed as a percentage of total cells. Photographs were taken at 100× magnification.

Where [4] appears, read: complexed with native LDL (100 μg/ml).
Setting [5] is: HAAE-1, 25 μM in the presence of LDL, or lipoprotein alone.

Take `CC(C)CCC[C@@H](C)[C@H]1CCC2C(CC=O)C([C@@]3(C)CC[C@H](O)CC3=O)CC[C@@]21C` (stereo partly drawn) [4a, 3β-Hydroxy-5-oxo-5,6-secocholestan-6-al]: the “recruitment (migration) of macrophages” value with J774A.1 macrophages is listed as “stimulate dose-dependent recruitment of macrophages”. Moreover, the migration of macrophages result with J774A.1 macrophages (co-incubated with BSA) is recorded as “macrophage migration still occurs”; with J774A.1 macrophages (setting [4]), “no significant migration”. The “THP-1 cell adherence (differentiation into macrophages)” value with THP-1 monocytes is “induced no cell adherence”. For the same molecule, the IC50 (usually the concentration needed to halve the response being measured) in series [1] (J774A.1, LDH release, 0-100 μM, 18 h, read-out: IC50) is 15.6 ± 2.1 µM; in [2] (MH-S, LDH release, 0-100 μM, read-out: IC50), 11.2 ± 1.2 µM. Also, the VCAM-1 levels result in the series on VCAM-1 (setting [5]) is “remain unchanged”. Besides, in the series with VCAM-1, the “integrin (VCAM-1) expression” value was “no effects”. The “adhesion of U-937 monocytes to endothelial cell monolayers, above that of LDL alone” value in series [3] is “no significant increase in equilibrium binding of monocytes to endothelial cells”. The E-selectin levels with E-selectin (HAAE-1, 1.25 μM complexed with LDL) was 2 fold; in the series with E-selectin (HAAE-1, 50 μM complexed with LDL), “about 8 fold”. Besides, the “upregulation of E-selectin expression relative to vehicle control” value with E-selectin is “greater than 4 fold”. The “selectin (E-selectin) expression” value in the series with E-selectin was “no effects”. Moreover, the “cytotoxic towards neuronal cell lines” value in the series on neuronal cell lines was “cytotoxic”. Also, in the series on ICAM-1 (setting [5]), the ICAM-1 levels result is “remain unchanged”. The “integrin (ICAM-1) expression” value in the series with ICAM-1 was “no effects”. The “lipid-loading of macrophages / foam cell formation” value with J774.1 macrophages is on record as “began lipid-loading”.

Turning to `CC(C)CCC[C@@H](C)[C@H]1CCC2C3C(CC[C@@]21C)[C@@]1(C)CC[C@H](O)C[C@@]1(O)[C@@H]3C=O` (stereo partly drawn) [5a, 3β-Hydroxy-5β-hydroxy-B-norcholestane-6β-carboxaldehyde], in the series on J774A.1 macrophages, the “recruitment (migration) of macrophages” value was “stimulate dose-dependent recruitment of macrophages”. The migration of macrophages entry was “macrophage migration still occurs” in the series with J774A.1 macrophages (co-incubated with BSA) and “no significant migration” in the series with J774A.1 macrophages (setting [4]). For the same molecule, in the series on THP-1 monocytes, the “concentration that causes THP-1 cell differentiation” value stood at 25 µM. The “THP-1 cell adherence (differentiation into macrophages)” value in the series with THP-1 monocytes is given as “began to adhere after 4 days”. Besides, the 50% inhibitory concentration (IC50) in series [1] (Mus musculus, J774.A1, 18 h) was 26.1 ± 2.8 µM; in series [2] (Mus musculus, Macrophage) it was 13.6 ± 1.1 µM. The “integrin (VCAM-1) expression” value with VCAM-1 is “no effects”. For the same molecule, the “adhesion of U-937 monocytes to endothelial cell monolayers, above that of LDL alone” value in [3] is recorded as “no significant increase in equilibrium binding of monocytes to endothelial cells”. In the series with E-selectin, the “upregulation of E-selectin expression relative to vehicle control” value is recorded as 1.8 fold. Moreover, in the series with E-selectin, the “selectin (E-selectin) expression” value is reported as “no effects”. Also, the “cytotoxic towards neuronal cell lines” value with neuronal cell lines was “cytotoxic”. Further, the “integrin (ICAM-1) expression” value in the series on ICAM-1 is “no effects”. Moreover, in the series with J774.1 macrophages, the “lipid-loading of macrophages / foam cell formation” value is “began lipid-loading”.
